Source: patent US20230414573A1, “SYNERGISTIC OPHTHALMOLOGICAL COMPOSITION IN A LOW-CONCENTRATION DOSE THAT IS EFFECTIVE IN THE PREVENTION, CONTROL AND ERADICATION OF PRESBYOPIA” (priority 2020, published 2023)
Values joined by “and” are separate entries in the source; they are usually repeats but may differ in a detail not shown here. Equal entries are not always repeated.

Tested on: eyes of patients with presbyopia
Assay: Clinical trial: near vision on Rosenbaum chart with Jaeger notation
Type: in vivo, human
Conditions: one hour after instillation; for JAEGER- 2 (Jaeger scale, near vision): one drop, synergistic mixture in non-dominant eye, pilocarpine or brimonidine dilution in dominant eye, 11 patients, baseline 5.82; for WINNED LINES (lines gained in the reading primer with Jaeger's notation): synergistic combination in non-dominant eye, comparators in dominant eye
Protocol: A composition was prepared where patients with presbyopia symptoms were selected. This study was approved by the ethics committee of Optall Vision Eye Center in Mexico City. All patients signed and gave their consent to participate in such study.
For the study, patients with presbyopia, with a corrected visual acuity of 20/25 or better, were included. The diagnosis of presbyopia was determined without correcting near vision acuity was equal to or less than 3 on the Jaeger scale on the Rosenbaum chart improving at least 2 on the Jaeger scale with the use of at least +1.00 D. Age, gender, ocular dominance, uncorrected visual acuity (UCVA), corrected near visual acuity (BNCVA) intraocular pressure with Goldmann applanation tonometer (IOP), pupil diameter under photopic and scotopic conditions (PD), slit lamp biomicroscopic examination and a fundus examination were recorded.
The ophthalmic composition comprised a single low concentration dose of pilocarpine, brimonidine, oxymetazoline/sodium hyaluronate, bromfenac and/or at least one vasoconstrictor and at least one pharmaceutically acceptable vehicle. From said combination, one drop of the synergistic mixture was applied and instilled in the nondominant eye and one drop of pilocarpine or brimonidine dilution was alternately instilled in the dominant eye of consecutive patients. After one hour, uncorrected visual acuity (UCVA), corrected visual acuity (BCVA), uncorrected near visual acuity (UNVA), corrected near visual acuity (BCNVA), intraocular pressure (IOP), pupil diameter (PD), visual analog pain scale (VAS) was measured from 0 to 10. Hyperemia was measured from 1 to 4.
Statistical analyses were performed with SPSS using Pearson's and Spearman's correlation analysis.
The type of modern Jaeger eye chart scale used generally ranges from J10 (approximately 14 points for Times New Roman typeface) to J1 (approximately 3 points, Times New Roman typeface). The chart moves back and forth until you can read a certain font size.

Structure (SMILES)	JAEGER- 2 (Jaeger scale, near vision)	WINNED LINES (lines gained in the reading primer with Jaeger's notation)	WINNED LINES (lines gained in the reading primer with Jaeger's notation) (listed as brimonidine)	JAEGER- 2 (Jaeger scale, near vision) (listed as pilocarpine)	WINNED LINES (lines gained in the reading primer with Jaeger's notation) (listed as pilocarpine)
Brc1c(NC2=NCCN2)ccc2nccnc12 [Brimonidine, brimonidine]	3.50±−1.761 and 3.5	2.33	2.33±−2.50	–	–
CC[C@@H]1C(=O)OC[C@@H]1Cc1cncn1C [Pilocarpine, pilocarpine]	4.2	1.6	–	4.20±−1.483	1.60±−089
